# From patent publication US20240316059A1, “PEPTIDE DRUG CONJUGATES” (Oncopeptides AB, priority 2021, published 2024)
# Like-named read-outs stand apart in the source and are kept apart here.
# Experiments:
# MM.1S cells [1] = test: In vitro cytotoxic potency in MM.1S cell viability assay (CellTiter-Glo); format: cell-based, human; conditions: Homo sapiens, MM1.S, 72 h
# How it was run: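 Log-phase MM.1S cells in supplemented RPMI 1640 were seeded at 100000 cells/mL with compound (0.2% DMSO final). After 72 h at 37 °C in CO2, viability was measured by CellTiter-Glo 2.0 luminescence.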
# THP-1 = test: In vitro cytotoxicity, THP-1 (Acute Myeloid Leukemia); format: cell-based; conditions: Homo sapiens, THP-1; 72 h, CellTiter-Glo 2.0; read-out: Cytotoxicity IC50, THP-1
# Method: (§1) All cells were cultivated in RPMI medium 1640 (IX). All media was supplemented with 10 μg/μl penicillin/streptomycin, 10% heat inactivated FBS, 0.1 mM Sodium Pyruvate, 1×MEM NEAA (ThermoFisher) and 1 mM HEPES. The DERL-2 cells had higher FBS (20%) and 40 ng/mL IL-2 was added. hPBMCs were thawed and allowed to acclimatise overnight and then stimulated with 10 μg/mL PHA-M and 40 ng/mL IL-2 for 4 hours before being exposed to test compounds. All cells, except for hPBMCs, were grown to reach log phase before being exposed to the test compounds.
# (§2) Test compounds were dissolved in 100% DMSO and added to a 384 assay plate. Additional DMSO was added to maintain the same final DMSO concentration (0.2%) in all wells. 25 μL cell suspension with a concentration of 100000 cells/mL was added to each well. The cells were cultured in a CO2 incubator at 37° C. for 72 h. Plates were equilibrated to room temperature for 30 minutes before adding 20 μL CellTiter-Glo® 2.0 (Promega) reagent to all wells. The plate was then allowed to stabilize for 20 minutes before recording the luminescence (Em filter 700 nm) in an Envision plate reader.
# AMO-1 = test: In vitro cytotoxicity, AMO-1 (Multiple Myeloma); format: cell-based; conditions: Homo sapiens, AMO1; 72 h, CellTiter-Glo 2.0; read-out: Cytotoxicity IC50, AMO-1
# Method: as §1, §2
# EJM = test: In vitro cytotoxicity, EJM (Multiple Myeloma); format: cell-based; conditions: Homo sapiens, 72 h, CellTiter-Glo 2.0, read-out: Cytotoxicity IC50, EJM
# Method: as §1, §2
# KMS-12-BM = test: In vitro cytotoxicity, KMS-12-BM (Multiple Myeloma); format: cell-based; conditions: Homo sapiens, 72 h, CellTiter-Glo 2.0, read-out: Cytotoxicity IC50, KMS-12-BM
# Method: as §1, §2
# OPM-2 = test: In vitro cytotoxicity, OPM-2 (Multiple Myeloma); format: cell-based; conditions: Homo sapiens, OPM-2; 72 h, CellTiter-Glo 2.0; read-out: Cytotoxicity IC50, OPM-2
# Method: as §1, §2
# RPMI-8226 = test: In vitro cytotoxicity, RPMI-8226 (Multiple Myeloma, resistant); format: cell-based; conditions: Homo sapiens, RPMI-8226; 72 h, CellTiter-Glo 2.0; read-out: Cytotoxicity IC50, RPMI-8226
# Method: as §1, §2
# U266 = test: In vitro cytotoxicity, U266 (Multiple Myeloma); format: cell-based; conditions: Homo sapiens, U-266; 72 h, CellTiter-Glo 2.0; read-out: Cytotoxicity IC50, U266
# Method: as §1, §2
# SC-1 = test: In vitro cytotoxicity, SC-1 (B cell Lymphoma); format: cell-based; conditions: Homo sapiens, SC-1; 72 h, CellTiter-Glo 2.0; read-out: Cytotoxicity IC50, SC-1
# Method: as §1, §2
# DERL-2 = test: In vitro cytotoxicity, DERL-2 (T cell Lymphoma); format: cell-based; conditions: Homo sapiens, 72 h, CellTiter-Glo 2.0, 20% FBS, 40 ng/mL IL-2, read-out: Cytotoxicity IC50, DERL-2
# Method: as §1, §2
# SUP-T1 = test: In vitro cytotoxicity, SUP-T1 (T cell Lymphoma); format: cell-based; conditions: Homo sapiens, SUP-T1; 72 h, CellTiter-Glo 2.0; read-out: Cytotoxicity IC50, SUP-T1
# Method: as §1, §2
# [2] = In vitro cytotoxicity, BJ fibroblasts (normal cells); format: cell-based; conditions: human, CellTiter-Glo 2.0
# Method: as §1, §2
# [3] = In vitro cytotoxicity, human peripheral blood mononuclear cells; format: cell-based; conditions: CellTiter-Glo 2.0, stimulated with PHA-M and IL-2, read-out: Cytotoxicity IC50, hPBMC
# Method: as §1, §2
# MM.1S cells [4] = test: Cellular retention/efflux: intracellular and extracellular concentrations by LC-MS/MS; format: in vitro ADME, human; conditions: metabolites measured after treatment with the parent Example compound
# Method: Methods: MMA1S cells at 2×10^6 cells/mL were seeded at 250 μL per well in a 96-well plate. Cells were incubated in the presence of a test compound for 5, 15, and 60 min before pelleting cells by centrifugation at +4° C. for 5 min. Cell media was immediately harvested to a second plate and stored at −80° C. until further analysis. Pelleted cells were washed once with ice cold PBS before storage at −80° C. until further analysis.
# Cells were lysed and protein in the media were precipitated using acetonitrile dimethylformamide, 9:1 containing internal standard. Samples were centrifuged and the supernatant was analyzed with LC-MS/MS (ACQUITY UPLC-Xevo TQ-S micro) to determine compound concentration.
# Example compound 1, bendamustine and melphalan were used as test compounds.
# Method: Method described in Biological example 3.
# Example compounds 1, 2, 3, 4, 6, 7 and 10 were investigated. Intracellular metabolites are formed from all compounds tested. The compound used for cell treatment was metabolised to the ester-hydrolysed compound (here called Metabolite A) and to the amide-hydrolysed compound (called Metabolite B). The example compound structures and the structures of the two metabolites for the respective compounds were as shown in Table 4. The Metabolites B formed under the conditions tested were compounds with structure as Examples 17 and 18: […]
# [5] = system: DNA prepared from MM.1S cells (nuclear HPRT and mitochondrial DNA); test: Direct DNA damage, PCR amplification of treated DNA (HPRT and mtDNA primers); format: biochemical, human; conditions: 0.25 μM compound, 30 minutes, 37° C., 1 μg DNA
# Method: Method: DNA was prepared from MM.1S cells by QIAGEN genomic tip 20/G according to protocol described in Furda et al., Methods Mol Biol, 2012. 1 μg of DNA was treated with 0.25 μM compound for 30 minutes at 37° C. DMSO was used as control treatment. 20 ng of the treated DNA was PCR amplified using Phusion Hot Start II High Fidelity PCR Master Mix (Thermo Scientific) and primers directed to either HPRT or primers directed to mitochondrial DNA (mtDNA) was used, generating 10.4 or 8.9 kb fragments, respectively. The PCR reactions were separated on a 1% agarose gel and visualized by ChemiDoc™ MP Imaging System (BioRad). Example compounds 1, 2 and 38 were investigated, as were compounds 18 and 20, which are metabolites of compound 1. They were compared with bendamustine, melphalan and DMSO control. The results for compounds 1, 2, 18 and 20 with the HPRT primers are shown in FIG. 4(A); the results with the mtDNA primers are shown in FIG. 4(B).
compound,measurement,setting,value
"N[C@@H](Cc1ccc(N(CCCl)CCCl)cc1)C(=O)O [Melphalan, melphalan, reference compound]",IC50,"MM.1S cells [1]; read-out: Cytotoxicity IC50, MM.1S",4.25 µM
same,IC50,MM.1S cells [1]; read-out: MM.1S IC50,4.25 µM
same,IC50,THP-1,4.31 µM
same,IC50,AMO-1,8.34 µM
same,IC50,EJM,40 µM
same,IC50,KMS-12-BM,9.83 µM
same,IC50,OPM-2,10.2 µM
same,IC50,RPMI-8226,32.5 µM
same,IC50,U266,18.9 µM
same,IC50,SC-1,8.64 µM
same,IC50,DERL-2,1.88 µM
same,IC50,SUP-T1,2.96 µM
same,IC50 at 72 h,[2],104 µM
same,IC50 at 72 h,[3],3.6 µM
same,Intracellular concentration (in words),"MM.1S cells [4]; MM.1S cells incubated with test compound 5, 15, 60 min",low intracellular concentration
same,Extracellular concentration (in words),"MM.1S cells [4]; media of MM.1S cells incubated with test compound 5, 15, 60 min",high and constant throughout the experiment
same,DNA damage on nuclear and mitochondrial DNA (PCR band),[5],no or very minor effect on DNA damage
